Data reported in ChEMBL document CHEMBL1221200, “Diarylquinolines target subunit c of mycobacterial ATP synthase” (Nat Chem Biol, 2007).
Values after ≈ are worked out from the molar mass of the structure shown.

Tested on: Mycobacterium tuberculosis
Test: Antimicrobial activity against Mycobacterium bovis BCG by alamar blue assay
Assay type: functional, variant bovis BCG

Structure (SMILES) | MIC90 | MIC90 (Mycobacterium tuberculosis, variant bovis BCG, read-out: MIC90)
COc1nc2ccc(Br)cc2cc1[C@H](c1ccccc1)[C@@](O)(CCN(C)C)c1cccc2ccccc12 (racemic; 1d) | 1.8 µg/mL (≈ 3.24 µM) | 
COc1nc2ccc(Br)cc2cc1[C@@H](c1ccccc1)[C@@](O)(CCN(C)C)c1cccc2ccccc12 [BEDAQUILINE] | 0.07 µg/mL (≈ 0.126 µM) | 
CO[C@H]1/C=C/O[C@@]2(C)Oc3c(C)c(O)c4c(O)c(c(/C=N/N5CCN(C)CC5)c(O)c4c3C2=O)NC(=O)/C(C)=C\C=C\[C@H](C)[C@H](O)[C@@H](C)[C@@H](O)[C@@H](C)[C@H](OC(C)=O)[C@@H]1C [RIFAMPIN] |  | 0.02 µg/mL (≈ 0.0243 µM)
COc1nc2ccc(Br)cc2cc1[C@@H](c1ccccc1)[C@@](O)(CCN(C)C)c1cccc2ccccc12 (single isomer, unassigned) [BEDAQUILINE] | 1.8 µg/mL (≈ 3.24 µM) | 
COc1nc2ccc(Br)cc2cc1[C@H](c1ccccc1)[C@@](O)(CCN(C)C)c1cccc2ccccc12 (racemic; 1c) | 7.9 µg/mL (≈ 14.2 µM) | 
